Reference: paper PMC8298602, “14-3-3-protein regulates Nedd4-2 by modulating interactions between HECT and WW domains” (Communications Biology, 2021)

Assays:
[1] = test system: Nedd4-2^186–975; experiment: auto-ubiquitination (Ub chain formation) assay, immunoblot; format: biochemical, human; settings: for Difference (no 14-3-3 minus with 14-3-3): normalized means; for effect on auto-ubiquitination of Nedd4-2^186–975 (in words): Nedd4-2^186–975 with 14-3-3, 1:2 molar ratio, 30 °C
Description: For in vitro ubiquitination assays, 5 µg of human Ub, 50 ng of E1 (mouse Uba1), 200 ng of E2 (mouse Ube2d2) and 500 ng of E3 (phosphorylated Nedd4-2^186–975) were incubated in 30 µl of the reaction mixture in a buffer containing 50 mM Tris pH 7.5, 2 mM ATP, 5 mM MgCl2 and 2 mM DTT and incubated for 5, 10 and 15 min at 30 °C. The reactions were stopped by adding 5 × SDS-PAGE loading buffer (250 mM Tris pH 6.8, 50% glycerol, 500 mM DTT and 10% SDS) and incubating at 95 °C for 3 minutes to denaturate the samples. For reactions with 14-3-3η, Nedd4-2^186–975 was mixed with 14-3-3η in a 1:2 molar ratio and incubated for 30 minutes on ice before starting the reaction. In addition, 20 µl of reaction was separated by conventional SDS-PAGE on a 10% acrylamide gel and electro-blotted against a PVDF membrane in 20 mM Tris pH 7.5, 154 mM glycin and 10% methanol buffer overnight at 4 °C. Rabbit anti-Ub polyclonal antibody (Enzo) and anti-rabbit IgG, HRP-linked Antibody (Cell Signaling Technology) were used to visualize the transferred polyubiquitin chains. Chemiluminescence was induced by ECL and detected using Fusion Solo S (Vilber). The detected bands of E3-Ub were quantitated using the Image Lab software (Bio-Rad).
(§1) Results from the FP assay (Fig. 4) and immunoblot (Supplementary Fig. S1) are represented as means ± SD from three replicates as indicated in the figure legend. Statistical analysis for the data from immunoblot were performed using Graph-Pad Prism 8.4. Student’s t-test was used for comparison of relative changes of samples with and without 14-3-3η at selected timepoints (ns, non-significant P > 0.05; *, P < 0.05).
Supplementary Fig. S1. 14-3-3 slows down the auto-ubiquitination of Nedd4- 2186-975. a Purity and integrity of the samples used in the Ub chain formation assay. The samples were resolved by 10% Tris/Glycine SDS-PAGE and stained with Coomassie G-250. b Ubiquitin (Ub) chain formation assay with and without 14-3-3ε and the representative immunoblot of Ub. Black rectangles denote the borders of the sample zones that were quantified. The presence of ubiquitinated Nedd4-2 in the quantified zones was confirmed by LC-MS analysis. c Relative abundances of ubiquitinated Nedd4-2186-975 with and without 14-3-3η based on the immunoblot of Ub. Error bars represent the standard deviation of three independent experiments. Results show the data distribution. Asterisks represent significant differences according to unpaired Student’s t-tests comparing relative change between samples without and with 14-3-3ε at selected timepoints (ns, non-significant P > 0.05; *, P < 0.05).
(1 picture or pasted object on this page, not shown here)

[2] = test system: all human 14-3-3 protein isoforms; experiment: fluorescence polarization (FP), all seven 14-3-3 isoforms (results in words); format: binding; settings: 50 nM FITC-labelled peptide, 14-3-3 isoforms from 80 μM
Description: Fig. 4 14-3-3 isoform binding specificity of Nedd4-2 phosphomotifs. Binding of FITC-labeled phosphopeptides with 14-3-3 binding motifs of Nedd4-2 (pSer^342, pThr^367 or pSer^448) to all human 14-3-3 isoforms was characterized by FP titrations. The binding affinities of these peptides were determined by fitting FP data to a one-site binding model. The corresponding sequences of these peptides are shown at the top. Background polarization was subtracted from all values. Results are expressed as mean ± SD (n = 3). Error bars are not visible if they are smaller than the size of the symbol.
The FP assay was performed using a CLARIOstar microplate reader (BMG Labtech, […]) on 384-well black low-volume flat-bottom plates (Corning, New York, USA) in a buffer containing 10 mM HEPES (pH 7.4), 150 mM NaCl, 0.1% (v/v) Tween 20 and 0.1% (w/v) BSA. […] The excitation and emission wavelengths were 482 nm and 530 nm, respectively. The KD values were determined as the mean of three independent measurements using GraphPad Prism version 8.0.1 for Windows, GraphPad Software, La Jolla California USA, www.graphpad.com.
as §1

14-3-3η: 14-3-3 protein eta isoform, stable dimer, known Nedd4-2 binding partner
Difference (no 14-3-3 minus with 14-3-3) ([1]; 5 min): 0.1757
relative abundance of ubiquitinated Nedd4-2^186–975 ([1]; 5 min, with 14-3-3, mean of n = 3, normalized (mean without 14-3-3 = 1), listed as 14-3-3): 0.8243
relative abundance of ubiquitinated Nedd4-2^186–975 ([1]; 5 min, with 14-3-3, mean of n = 3, normalized (mean without 14-3-3 = 1), listed as 1433): 0.8243
abundance of ubiquitinated Nedd4-2^186–975 ([1]; 5 min, with 14-3-3, mean of n = 3, not normalized): 1.509
relative abundance of ubiquitinated Nedd4-2^186–975 ([1]; 5 min, with 14-3-3, replicate 1, normalized (mean without 14-3-3 = 1)): 0.8139
abundance of ubiquitinated Nedd4-2^186–975 ([1]; 5 min, with 14-3-3, replicate 1, not normalized): 1.49
relative abundance of ubiquitinated Nedd4-2^186–975 ([1]; 5 min, with 14-3-3, replicate 2, normalized (mean without 14-3-3 = 1)): 1.075
abundance of ubiquitinated Nedd4-2^186–975 ([1]; 5 min, with 14-3-3, replicate 2, not normalized): 1.967
relative abundance of ubiquitinated Nedd4-2^186–975 ([1]; 5 min, with 14-3-3, replicate 3, normalized (mean without 14-3-3 = 1)): 0.5843
abundance of ubiquitinated Nedd4-2^186–975 ([1]; 5 min, with 14-3-3, replicate 3, not normalized): 1.069
Difference (no 14-3-3 minus with 14-3-3) ([1]; 10 min): 0.2602
relative abundance of ubiquitinated Nedd4-2^186–975 ([1]; 10 min, with 14-3-3, mean of n = 3, normalized (mean without 14-3-3 = 1), listed as 14-3-3): 0.7398
relative abundance of ubiquitinated Nedd4-2^186–975 ([1]; 10 min, with 14-3-3, mean of n = 3, normalized (mean without 14-3-3 = 1), listed as 1433): 0.7398
abundance of ubiquitinated Nedd4-2^186–975 ([1]; 10 min, with 14-3-3, mean of n = 3, not normalized): 2.393
relative abundance of ubiquitinated Nedd4-2^186–975 ([1]; 10 min, with 14-3-3, replicate 1, normalized (mean without 14-3-3 = 1)): 0.713
abundance of ubiquitinated Nedd4-2^186–975 ([1]; 10 min, with 14-3-3, replicate 1, not normalized): 2.306
relative abundance of ubiquitinated Nedd4-2^186–975 ([1]; 10 min, with 14-3-3, replicate 2, normalized (mean without 14-3-3 = 1)): 0.8702
abundance of ubiquitinated Nedd4-2^186–975 ([1]; 10 min, with 14-3-3, replicate 2, not normalized): 2.814
relative abundance of ubiquitinated Nedd4-2^186–975 ([1]; 10 min, with 14-3-3, replicate 3, normalized (mean without 14-3-3 = 1)): 0.6363
abundance of ubiquitinated Nedd4-2^186–975 ([1]; 10 min, with 14-3-3, replicate 3, not normalized): 2.058
Difference (no 14-3-3 minus with 14-3-3) ([1]; 15 min): 0.2943
relative abundance of ubiquitinated Nedd4-2^186–975 ([1]; 15 min, with 14-3-3, mean of n = 3, normalized (mean without 14-3-3 = 1), listed as 14-3-3): 0.7057
relative abundance of ubiquitinated Nedd4-2^186–975 ([1]; 15 min, with 14-3-3, mean of n = 3, normalized (mean without 14-3-3 = 1), listed as 1433): 0.7057
abundance of ubiquitinated Nedd4-2^186–975 ([1]; 15 min, with 14-3-3, mean of n = 3, not normalized): 3.153
relative abundance of ubiquitinated Nedd4-2^186–975 ([1]; 15 min, with 14-3-3, replicate 1, normalized (mean without 14-3-3 = 1)): 0.7206
abundance of ubiquitinated Nedd4-2^186–975 ([1]; 15 min, with 14-3-3, replicate 1, not normalized): 3.22
relative abundance of ubiquitinated Nedd4-2^186–975 ([1]; 15 min, with 14-3-3, replicate 2, normalized (mean without 14-3-3 = 1)): 0.776
abundance of ubiquitinated Nedd4-2^186–975 ([1]; 15 min, with 14-3-3, replicate 2, not normalized): 3.467
relative abundance of ubiquitinated Nedd4-2^186–975 ([1]; 15 min, with 14-3-3, replicate 3, normalized (mean without 14-3-3 = 1)): 0.6205
abundance of ubiquitinated Nedd4-2^186–975 ([1]; 15 min, with 14-3-3, replicate 3, not normalized): 2.772
effect on auto-ubiquitination of Nedd4-2^186–975 (in words) [1]: reduced
effect on auto-ubiquitination of Nedd4-2^186–975 (in words) ([1]; listed as 14-3-3): slows down

FITC-ARSSpTVTGGE [pep-T367]
binding to 14-3-3 isoforms (in words) [2]: very weak, to all 14-3-3 isoforms except ε and σ

FITC-LRSCpSVTDAV [pep-S448]
binding to 14-3-3 isoforms (in words) [2]: binds to all 14-3-3 isoforms in the low micromolar range

FITC-PRSLpSSPTVT [pep-S342]
binding to 14-3-3 isoforms (in words) [2]: measurable binding affinity only to 14-3-3σ
